Results: patent US10870638B2, “Pyridazinone compound or its salt, and herbicide containing it” (ISHIHARA SANGYO KAISHA, LTD., priority 2016, dated 2020)

Tests used:
Experiment in all cases: Test Example 1: foliar treatment, growth inhibition rate on 14th day
Assay type in all cases: in vivo
Conditions in all cases: active ingredient amount 31 g/ha, 14th day after application
corn (Zea mays L.) = test system: corn (Zea mays L.)
Source text: (§1) Upland field soil was put into a 1/300,000 hectare pot, and seeds of various plants were sown. When the respective plants reached predetermined leaf stage ((1) barnyardgrass (Echinochloa crus-[…].): 0.5 to 2.9 leaf stage, (2) crabgrass (Digitaria sanquinalis L.): 0.5 to 3.0 leaf stage, (3) green foxtail (Setaria viridis L.): 0.5 to 3.2 leaf stage, (4) wild oat (Avena fatua L.): 0.4 to 1.2 leaf stage, (5) italian ryegrass (Lolium multiflorum Lam.): 0.4 to 2.0 leaf stage, (6) redroot pigweed (Amaranthus retroflexus L.): cotyledon stage to 2.2 leaf stage, (7) rice (Oryza sativa L.): 0.2 to 2.7 leaf stage, (8) corn (Zea mays L.): 1.7 to 3.6 leaf stage, (9) wheat (Triticum aestivum L.): 1.3 to 2.3 leaf stage, (10) soybean (Glycine max Merr.); primary leaf stage), wettable powders or emulsifiable concentrates of the compounds of the present invention prepared in accordance with a conventional preparation method, were weighed so as to achieve the prescribed active ingredient amounts, and diluted with water in an amount corresponding to 1,000 liters per 1 hectare (containing 0.1 vol % of an agricultural spreader (surfactant WK manufactured by MARUWA BIOCHEMICAL Co., Ltd.)), and the spray solutions thus prepared were applied for foliar treatment by a small sprayer. On the 14th day after the application, the state of growth of the respective plants was visually observed, and the herbicidal effect was evaluated by a growth inhibition rate (%) of 0 (equivalent to the non-treated area) to 100 (complete kill).

[1] = test system: soybean (Glycine max Merr.)
Source text: as §1

[2] = test system: redroot pigweed (Amaranthus retroflexus L.)
Source text: as §1

[3] = test system: italian ryegrass (Lolium multiflorum Lam.)
Source text: as §1

[4] = test system: barnyardgrass (Echinochloa crus-qalli L.)
Source text: as §1

[5] = test system: crabgrass (Digitaria sanquinalis L.)
Source text: as §1

rice (Oryza sativa L.) = test system: rice (Oryza sativa L.)
Source text: as §1

[6] = test system: wheat (Triticum aestivum L.)
Source text: as §1

[7] = test system: green foxtail (Setaria viridis L.)
Source text: as §1

[8] = test system: wild oat (Avena fatua L.)
Source text: as §1

[9] = visual, 0 = non-treated, 100 = complete kill

Compound | Growth inhibition rate (%) Corn (corn (Zea mays L.); [9]) | Growth inhibition rate (%) Soybean [1, 9] | Growth inhibition rate (%) Redroot pigweed [2, 9] | Growth inhibition rate (%) Italian ryegrass [3, 9] | Growth inhibition rate (%) Barnyardgrass [4, 9] | Growth inhibition rate (%) Crabgrass [5, 9] | Growth inhibition rate (%) Rice (rice (Oryza sativa L.); [9]) | Growth inhibition rate (%) Wheat [6, 9] | Growth inhibition rate (%) Green foxtail [7, 9] | Growth inhibition rate (%) Wild oat [8, 9] | Growth inhibition rate (%) Corn (corn (Zea mays L.)) | Growth inhibition rate (%) Soybean [1] | Growth inhibition rate (%) Redroot pigweed [2] | Growth inhibition rate (%) Italian ryegrass [3] | Growth inhibition rate (%) Barnyardgrass [4] | Growth inhibition rate (%) Crabgrass [5] | Growth inhibition rate (%) Rice (rice (Oryza sativa L.)) | Growth inhibition rate (%) Wheat [6] | Growth inhibition rate (%) Green foxtail [7] | Growth inhibition rate (%) Wild oat [8]
Cc1ccc(Oc2cnc3cc(Cl)ccc3n2)cc1-c1c(OC(=O)N(C)c2ccccc2)c(C)nn(C)c1=O [Compound 3-66] | 25% | 0% | 0% | 40% | 10% | 20% | 0% | 10% | 35% | 50% | – | – | – | – | – | – | – | – | – | –
Cc1ccc(Oc2cnc3cc(Cl)ccc3n2)cc1-c1c(OC(=O)C2CC2)c(C)nn(C)c1=O [Compound 3-37] | – | – | – | – | – | – | – | – | – | – | 45% | 30% | 10% | 99% | 100% | 99% | 95% | 99% | 100% | 98%
Cc1ccc(Oc2ncc3cc(Br)ccc3n2)cc1-c1c(O)c(C)nn(C)c1=O [Compound 2-90] | – | – | – | – | – | – | – | – | – | – | 0% | 0% | 0% | 10% | 90% | 0% | 0% | 20% | 75% | 0%
CC(=O)Oc1c(C)nn(C)c(=O)c1-c1cc(Oc2nccc(C(F)(F)F)c2Cl)ccc1C [Compound 2-131] | – | – | – | – | – | – | – | – | – | – | 40% | 10% | 10% | 78% | 85% | 65% | 10% | 45% | 98% | 50%
CC(=O)Oc1c(C)nn(C)c(=O)c1-c1cc(Oc2ncc(Cl)cc2Cl)ccc1C [Compound 2-128] | – | – | – | – | – | – | – | – | – | – | 75% | 0% | 0% | 93% | 85% | 83% | 45% | 60% | 75% | 88%
Cc1ccc(Oc2cnc3cc(Cl)ccc3n2)cc1-c1c(OC(=S)N(C)C)c(C)nn(C)c1=O [Compound 3-67] | 50% | 0% | 0% | 99% | 100% | 95% | 40% | 99% | 100% | 100% | – | – | – | – | – | – | – | – | – | –
Cc1ccc(Oc2cnc3cc(Cl)ccc3n2)cc1-c1c(OC(=O)CC(C)(C)C)c(C)nn(C)c1=O [Compound 3-53] | 0% | 0% | 0% | 65% | 100% | 93% | 40% | 0% | 95% | 60% | – | – | – | – | – | – | – | – | – | –
CCc1nn(C)c(=O)c(-c2cc(Oc3ncc(C(F)(F)F)cc3Cl)ccc2C)c1OC(C)=O [1-137] | – | – | – | – | – | – | – | – | – | – | 95% | 15% | 0% | 93% | 100% | 75% | 85% | 85% | 80% | 93%
